This passage reports GI50 and TGI results from PubChem BioAssay (NCI).

Several values for one entry are separate records, joined by “and”; a condition that tells them apart may be missing. Equal entries are not always repeated.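 Assay format: 96-well plates, 48-hour exposure. Here, GI50 denotes the concentration required for 50% inhibition of growth. TGI denotes the concentration required for complete inhibition of growth.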 A value given as a limit tells only on which side of the number the result lay.

Some test systems named below: HCT-116 colon; HOP-62 NSCLC; HT29 colon; K-562 leukemia; NCI-H226 lung; NCI-H23 lung; NCI/ADR-RES ovarian; OVCAR-3 ovarian; SK-OV-3 ovarian; U251 CNS.
Assay in all cases: NCI tumour cell line growth inhibition, 48 h

Consider `CCCCCCCCCC(CCCC(O)CC(=O)O)OC1OC(COC2OC(C)C(OC(C)=O)C(O)C2O)C(O)C(O)C1OC1OC(CO)C(O)C(O)C1OC1OC(C)C(OC(=O)CC(C)C)C(O)C1O` (stereo unspecified), for which the GI50 in the assay with HCT-116 colon, with HOP-62 NSCLC, with HT29 colon, in the assay with K-562 leukemia, in the assay with NCI-H226 lung and in the assay on NCI-H23 lung was above 35 µM throughout. Further, the GI50 with NCI/ADR-RES ovarian, with OVCAR-3 ovarian, with SK-OV-3 ovarian and in the assay with U251 CNS was above 35 µM each time. In addition, the TGI in the assay on HCT-116 colon, in the assay with HOP-62 NSCLC, in the assay on HT29 colon, in the assay with K-562 leukemia, with NCI-H226 lung and in the assay with NCI-H23 lung was above 35 µM throughout. Moreover, the TGI in the assay with NCI/ADR-RES ovarian, in the assay with OVCAR-3 ovarian, with SK-OV-3 ovarian and in the assay on U251 CNS was above 35 µM each time.
As for `CN(C)C=NC1CCC(C(C)(C)C)CC1` (stereo unspecified), the TGI worked out at 31.9 µM with HCT-116 colon; 32.3 µM in the assay on HOP-62 NSCLC; 21.6 µM with HT29 colon; 45.1 µM in the assay on K-562 leukemia; 41.3 µM in the assay on NCI-H226 lung; 34.3 µM in the assay with NCI-H23 lung. The TGI came to 32.8 µM in the assay on NCI/ADR-RES ovarian, 28.8 µM in the assay on OVCAR-3 ovarian, 44.8 µM in the assay on SK-OV-3 ovarian and 31.2 µM with U251 CNS.
Take `O=C(COc1ccc(OCC(=O)N2C(=O)CN(c3ccccc3)C2=S)cc1)N1C(=O)CN(c2ccccc2)C1=S`: the GI50 in the assay on HCT-116 colon, in the assay with HOP-62 NSCLC, with HT29 colon, in the assay with K-562 leukemia, in the assay with NCI-H23 lung and in the assay with NCI/ADR-RES ovarian was above 25 µM each time. Further, the GI50 in the assay with OVCAR-3 ovarian and with U251 CNS was above 25 µM each time. Also, the TGI in the assay on HCT-116 colon, in the assay on HOP-62 NSCLC, with HT29 colon, in the assay with K-562 leukemia, in the assay with NCI-H226 lung and in the assay with NCI-H23 lung was above 100 µM each time. Besides, the TGI in the assay with NCI/ADR-RES ovarian, with OVCAR-3 ovarian, in the assay on SK-OV-3 ovarian and with U251 CNS was above 100 µM each time.
Take `CCCCCCCCCCCCCCCCCCOc1ccccc1CC(=O)OCC[N+](CC)(CC)CC`: the GI50 with HCT-116 colon was 1.61 µM; in the assay on HOP-62 NSCLC, 1.76 µM; with HT29 colon, 1.63 µM; in the assay with K-562 leukemia, 1.5 µM; in the assay with NCI-H226 lung, 1.27 µM; in the assay on NCI-H23 lung it was 1.16 µM. Further, the GI50 with NCI/ADR-RES ovarian is 7.58 µM; in the assay with OVCAR-3 ovarian it was 1.73 µM; in the assay with SK-OV-3 ovarian it was 3 µM; in the assay with U251 CNS it was 1.24 µM. Moreover, the TGI stood at 7.76 µM with HCT-116 colon; 8.32 µM in the assay on HOP-62 NSCLC; 8.58 µM with HT29 colon; 50 µM with K-562 leukemia; 5.64 µM with NCI-H226 lung; 4.09 µM in the assay with NCI-H23 lung. Moreover, the TGI with NCI/ADR-RES ovarian was determined as 17.5 µM; in the assay on OVCAR-3 ovarian, 6.33 µM; in the assay on SK-OV-3 ovarian, 12.1 µM; in the assay with U251 CNS, 3.56 µM.
As to `COc1ccc(-c2[nH]nc(N)c2-c2cc(OC)c3c(c2)OCO3)cc1`, the GI50 was 2.71 µM with HCT-116 colon; 5.65 µM with HOP-62 NSCLC; 3.65 µM with HT29 colon; 1.87 µM in the assay with K-562 leukemia; 8.36 µM in the assay with NCI-H226 lung; 3.87 µM with NCI-H23 lung. The GI50 in the assay on NCI/ADR-RES ovarian is 2.33 µM; in the assay with OVCAR-3 ovarian, 2.48 µM; in the assay on SK-OV-3 ovarian it was 5.74 µM; with U251 CNS, 4.29 µM. In addition, the TGI was above 100 µM with HCT-116 colon; above 100 µM in the assay on HOP-62 NSCLC; 25.7 µM with HT29 colon; above 100 µM with K-562 leukemia; above 100 µM in the assay on NCI-H226 lung; above 100 µM with NCI-H23 lung. Besides, the TGI in the assay with NCI/ADR-RES ovarian is 8.48 µM; with OVCAR-3 ovarian, 6.05 µM; in the assay with SK-OV-3 ovarian, above 100 µM; in the assay with U251 CNS, above 100 µM.
For `COc1ccc2nc3cc([N+](=O)[O-])ccc3c(NNc3ccccc3)c2c1`, the TGI was 28.2 µM and 28.6 µM with HCT-116 colon; 29.7 µM and > 100 µM in the assay with HOP-62 NSCLC; 29.9 µM and 39.2 µM with HT29 colon; 29.4 µM and > 100 µM with K-562 leukemia; 18.1 µM and 7.66 µM in the assay with NCI-H226 lung; 28.1 µM and > 90.5 µM with NCI-H23 lung. The TGI in the assay on NCI/ADR-RES ovarian was 55.1 µM and > 100 µM; with OVCAR-3 ovarian, 21.9 µM and > 100 µM; in the assay with SK-OV-3 ovarian, 35.3 µM and > 100 µM; in the assay on U251 CNS, 22 µM and > 100 µM. The GI50 in the assay with HOP-62 NSCLC is 13.1 µM; in the assay with K-562 leukemia, 3.49 µM; in the assay on NCI-H226 lung it was 1.63 µM; in the assay on NCI-H23 lung it was 12.1 µM; in the assay on NCI/ADR-RES ovarian, 12.8 µM; in the assay on OVCAR-3 ovarian it was 10.2 µM. Also, the GI50 is 14.9 µM in the assay with SK-OV-3 ovarian and 8.08 µM in the assay on U251 CNS.
Regarding `C[C@@H](NC(=O)c1ncnc(N)c1Cl)c1ncc(C(=O)Nc2cc(C(F)(F)F)c(Cl)cn2)s1`, the GI50 is 3.17 µM in the assay with HCT-116 colon; 24.3 µM in the assay with HOP-62 NSCLC; 1.07 µM in the assay on HT29 colon; 0.462 µM with K-562 leukemia; 15.4 µM in the assay on NCI-H226 lung; 10.8 µM with NCI-H23 lung. The GI50 in the assay with NCI/ADR-RES ovarian is 24.5 µM; with OVCAR-3 ovarian, 24.6 µM; in the assay on SK-OV-3 ovarian, 31.2 µM; with U251 CNS it was 19.5 µM. Also, the TGI in the assay with HCT-116 colon is above 68.9 µM; in the assay on HOP-62 NSCLC it was 84.8 µM; in the assay on HT29 colon, 46.2 µM; with K-562 leukemia, above 45.9 µM; in the assay on NCI-H226 lung, 74.3 µM; with NCI-H23 lung, 57.9 µM. Moreover, the TGI in the assay on NCI/ADR-RES ovarian is 82.5 µM; in the assay with OVCAR-3 ovarian it was 70 µM; in the assay with SK-OV-3 ovarian it was above 93.5 µM; in the assay on U251 CNS it was above 68.5 µM.
Turning to `NC1=NC(=O)/C(=C/c2ccc3ncccc3c2)S1`, the GI50 in the assay with HCT-116 colon is above 13.8 µM; in the assay on HOP-62 NSCLC it was above 25 µM; in the assay on HT29 colon, above 25 µM; in the assay with K-562 leukemia it was above 25 µM; in the assay on NCI-H226 lung, above 25 µM; in the assay on NCI-H23 lung, above 25 µM. The GI50 with NCI/ADR-RES ovarian, in the assay on OVCAR-3 ovarian, with SK-OV-3 ovarian and in the assay with U251 CNS was above 25 µM each time. Further, the TGI in the assay on HCT-116 colon, in the assay on HOP-62 NSCLC, with HT29 colon, with K-562 leukemia, in the assay with NCI-H226 lung and in the assay with NCI-H23 lung was above 25 µM each time. In addition, the TGI with NCI/ADR-RES ovarian, in the assay with OVCAR-3 ovarian, with SK-OV-3 ovarian and in the assay on U251 CNS was above 25 µM each time.
